Test results taken from patent publication US20250170104A1, “INHIBITORS OF PSEUDOMONAS AERUGINOSA VIRULENCE FACTOR Lasß” (priority 2022, published 2025).

How the values were obtained:
[1] = target: purified LasB (Pseudomonas aeruginosa (strain ATCC 15692 / DSM 22644 / CIP 104116 / JCM 14847 / LMG 12228 / 1C / PRS 101 / PAO1), UniProt P14756); assay: Ex vivo lung homogenate assay with purified LasB; type: biochemical
Description: The lung homogenate was prepared from pig lung, which was stored at −80° C. After thawing the lung tissue was cut into pieces of approximately 1.5 cm diameter and 0.5 to 1 cm thickness. Subsequently the bits were flash frozen in liquid nitrogen and lyophilized for 48 h.
1.2 g dried tissue was then ball milled using an IKA Tube Drive and the respective 50 mL ball milling tubes. 20 steel balls were used with target rpm of 6000, reversing the spinning direction every 30 seconds for a total of 10 min. After 10 min the tube was detached and inverted to loosen the powder. The ball milling was repeated with the same setup twice again.
To the powdery tissue 50 mL of a 10 mM Tris buffer including 2 mM CaCl2 with a pH of 8.0 was added and the IKA Tube Drive used again with the same settings as described before for 10 min to disperse the tissue powder in the aqueous buffer. The yielded lung homogenate was pipetted into 15 mL falcons and stored at −80° C. until further use.
To perform the LasB activity/inhibition assay a compound dilution was prepared in DMSO yielding a 100 fold concentration of the final concentration in the assay. LasB was diluted from a higher stock solution to a 6 μM stock in the same buffer as used for the lung homogenate. The assay was performed in Eppis. With a stepper pipette 10 μL of the prepared LasB solution was added to the Eppis to yield a final protein concentration of 300 nM. Then 188 μL of thawed lung homogenate was added with a stepper pipette. Finally, 2 μL of the 100 fold compound dilutions were added and mixed by pipetting up and down. The Eppis were incubated at 37° C. with a shaking speed of 1000 rpm for 4 h.
After 4 h, the Eppis were centrifuged at a speed of 14,000 rpm, 4° C. for 10 min to separate the soluble cleaved Elastin fragments from the non-cleaved insoluble part. 100 μL of the obtained supernatant was transferred to new Eppis, and the same volume of concentrated hydrochloric acid added. […]
Peak areas and response ratios were calculated using Xcalibur Quan browser with Amprolium set as internal standard. […]

[2] = system: P. aeruginosa PAO1 (strain DSM22644); assay: G. mellonella larvae survival after PAO1 infection; type: in vivo; conditions: for Final survival percentage of larvae: 3 CFU/Larva, 24 h
Description: Bacteria were grown overnight, diluted to OD600 of 0.025 in 10 ml medium, and grown for approx. 2 hours at 37° C. inside a shaker incubator until the OD600 of 1.8-2 is reached. The culture was then serially diluted in sterile PBS (pH=7.2). Bacterial densities of 3000, 300, 30, and 3 CFU/Larva were selected for injection into groups of 15 larvae. A total volume of 5 μl was injected into each larva via the hindmost left proleg by using a syringe pump and Sterican® needles (0.30×12 mm, 30G×½). In addition, control group without injection for the quality of the larvae and a PBS control to monitor the effect of the injection were included in the experiment. All test groups and control groups were incubated at 37° C. in the dark and monitored every 2 hours from 17 hours post-infection.
In vivo evaluation of compounds 162 and 169. Bacteria were cultured and prepared according to the previous section. Final concentrations of 50 μM, 25 μM, and 12.5 μM in combination with 3 CFU/Larva were injected into groups of 15 larvae. In addition to no injection and PBS controls, one group was infected with 3 CFU/Larva and considered the negative control. All test groups and control groups were incubated at 37° C. in the dark and monitored every 2 hours from 17 hours post-infection.

[3] = target: LasB (Pseudomonas aeruginosa (strain ATCC 15692 / DSM 22644 / CIP 104116 / JCM 14847 / LMG 12228 / 1C / PRS 101 / PAO1), UniProt P14756); assay: In vitro LasB activity assay (fluorogenic substrate); type: biochemical; conditions: LasB 0.3 nM, substrate 150 μM, mean ± SD
Method in brief: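 LasB (0.3 nM) preincubated 15 min at 37 °C with compound, then 150 µM Abz-Ala-Gly-Leu-Ala-p-nitrobenzylamide added in 50 mM Tris pH 7.2, 2.5 mM CaCl2, 0.075% Pluronic F-127, 5% DMSO. Fluorescence (ex 340, em 415 nm) followed 60 min at 37 °C. IC50 from blank-corrected v/v0 slopes, nonlinear regression, Hill slope fixed at 1.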

LasB, sequence (P14756 198-498): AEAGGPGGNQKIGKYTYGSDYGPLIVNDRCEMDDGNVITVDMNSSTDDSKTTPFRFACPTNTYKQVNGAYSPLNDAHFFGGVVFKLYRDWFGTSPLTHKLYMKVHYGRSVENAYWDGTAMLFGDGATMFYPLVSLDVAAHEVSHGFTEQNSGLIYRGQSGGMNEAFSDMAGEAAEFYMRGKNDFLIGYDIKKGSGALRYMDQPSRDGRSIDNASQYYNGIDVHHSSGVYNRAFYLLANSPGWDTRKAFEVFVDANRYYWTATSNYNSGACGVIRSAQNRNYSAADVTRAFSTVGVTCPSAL
purified LasB, sequence (P14756 198-498): as above

CC(C)CC(C(=O)NO)C(=O)Nc1ccc(Cn2cc(CNS(=O)(=O)CC(C)C)nn2)cc1 (stereo not drawn) [Compound 169, 2-(Hydroxycarbamoyl)-N-[4-[[4-[(isobutylsulfonylamino)methyl]triazol-1-yl]methyl]phenyl]-4-methyl-pentanamide]
IC50 [1]: 77 nM
Final survival percentage of larvae ([2]; 12.5 μM): 53%
Final survival percentage of larvae ([2]; 25 μM): 73%
Final survival percentage of larvae ([2]; 50 μM): 82%
Improvement in survival of larvae compared to negative control ([2]; 50 μM, vs 3 CFU/Larva without treatment): 40%
IC50 [3]: 5.2 ± 0.2 nM
